This is an account of results in ChEMBL document CHEMBL5620377, “Research progress of VEGFR small molecule inhibitors in ocular neovascular diseases” (Eur J Med Chem, 2023).

For orientation: pIC50 means the negative decadic logarithm of the IC50, by convention in mol/L. Usually half-life stands for the time in which the quantity being followed falls by half.

For series [1], the target named is T1, Vascular endothelial growth factor receptor 2 (Homo sapiens, UniProt P35968). Nature of the series: Inhibition of VEGFR-2 (unknown origin).
T1 sequence (P35968 whole entry, the tested form may be a part): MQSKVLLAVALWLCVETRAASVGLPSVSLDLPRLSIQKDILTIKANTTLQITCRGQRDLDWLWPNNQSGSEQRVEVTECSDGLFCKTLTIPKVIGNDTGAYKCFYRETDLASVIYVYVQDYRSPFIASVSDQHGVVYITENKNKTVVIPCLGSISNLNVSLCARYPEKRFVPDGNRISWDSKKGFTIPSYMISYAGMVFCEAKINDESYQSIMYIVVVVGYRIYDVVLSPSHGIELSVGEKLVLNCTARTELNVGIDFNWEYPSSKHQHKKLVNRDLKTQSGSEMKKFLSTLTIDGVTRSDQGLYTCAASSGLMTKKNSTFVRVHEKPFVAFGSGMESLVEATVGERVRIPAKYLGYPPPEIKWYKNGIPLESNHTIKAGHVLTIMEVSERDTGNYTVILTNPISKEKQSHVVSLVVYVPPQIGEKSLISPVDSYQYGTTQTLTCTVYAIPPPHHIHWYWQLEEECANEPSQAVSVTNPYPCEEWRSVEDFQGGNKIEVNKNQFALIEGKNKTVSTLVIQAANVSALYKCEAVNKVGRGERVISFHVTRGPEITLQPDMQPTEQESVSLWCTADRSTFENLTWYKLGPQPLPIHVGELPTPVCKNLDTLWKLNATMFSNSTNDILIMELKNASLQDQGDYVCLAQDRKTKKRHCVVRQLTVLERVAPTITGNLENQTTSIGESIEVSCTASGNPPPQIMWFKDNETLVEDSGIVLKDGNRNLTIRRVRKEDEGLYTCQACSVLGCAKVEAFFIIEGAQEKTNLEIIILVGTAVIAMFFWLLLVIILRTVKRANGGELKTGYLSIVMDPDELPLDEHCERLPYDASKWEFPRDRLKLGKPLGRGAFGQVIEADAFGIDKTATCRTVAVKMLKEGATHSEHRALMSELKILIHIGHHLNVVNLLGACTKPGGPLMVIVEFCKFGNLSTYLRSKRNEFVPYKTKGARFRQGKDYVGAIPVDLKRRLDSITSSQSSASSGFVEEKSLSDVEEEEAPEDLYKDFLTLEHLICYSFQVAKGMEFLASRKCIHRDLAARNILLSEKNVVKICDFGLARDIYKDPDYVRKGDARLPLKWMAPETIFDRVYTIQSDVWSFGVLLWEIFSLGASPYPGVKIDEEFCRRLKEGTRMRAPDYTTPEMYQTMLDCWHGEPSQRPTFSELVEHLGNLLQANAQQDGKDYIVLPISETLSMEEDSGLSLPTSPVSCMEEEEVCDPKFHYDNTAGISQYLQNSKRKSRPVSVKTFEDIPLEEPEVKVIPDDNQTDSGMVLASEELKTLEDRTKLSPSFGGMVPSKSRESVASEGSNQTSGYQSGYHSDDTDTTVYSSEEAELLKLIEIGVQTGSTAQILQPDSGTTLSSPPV
A short description of series [2]: Inhibition of PDGFRbeta (561 to 1106 residues) (unknown origin). The arrangement: species or system Homo sapiens.
For series [3], the target named is T1, Vascular endothelial growth factor receptor 2. Kind of series: Inhibition of recombinant human VEGFR2 using Poly (Glu,Tyr) 4:1 as substrate incubated for 1 hr by ELISA.
Series [4] has as its target Platelet-derived growth factor receptor beta (Homo sapiens, UniProt P09619). Nature of the series: Inhibition of recombinant human PDGFRbeta using Poly (Glu,Tyr) 4:1 as substrate incubated for 1 hr by ELISA. Background: In an ELISA, binding on a coated surface is turned into a signal by an enzyme label.
Series [5] in a line: Half life in human. Type of series: ADME.
A further series has as its system HUVEC. Nature of the series: Inhibition of VEGF-induced HUVECs proliferation. Type of series: functional, cell-based. The note with it: Homo sapiens.

pIC50: −log10 of the molar value.

Chain of Platelet-derived growth factor receptor beta (P09619 whole entry): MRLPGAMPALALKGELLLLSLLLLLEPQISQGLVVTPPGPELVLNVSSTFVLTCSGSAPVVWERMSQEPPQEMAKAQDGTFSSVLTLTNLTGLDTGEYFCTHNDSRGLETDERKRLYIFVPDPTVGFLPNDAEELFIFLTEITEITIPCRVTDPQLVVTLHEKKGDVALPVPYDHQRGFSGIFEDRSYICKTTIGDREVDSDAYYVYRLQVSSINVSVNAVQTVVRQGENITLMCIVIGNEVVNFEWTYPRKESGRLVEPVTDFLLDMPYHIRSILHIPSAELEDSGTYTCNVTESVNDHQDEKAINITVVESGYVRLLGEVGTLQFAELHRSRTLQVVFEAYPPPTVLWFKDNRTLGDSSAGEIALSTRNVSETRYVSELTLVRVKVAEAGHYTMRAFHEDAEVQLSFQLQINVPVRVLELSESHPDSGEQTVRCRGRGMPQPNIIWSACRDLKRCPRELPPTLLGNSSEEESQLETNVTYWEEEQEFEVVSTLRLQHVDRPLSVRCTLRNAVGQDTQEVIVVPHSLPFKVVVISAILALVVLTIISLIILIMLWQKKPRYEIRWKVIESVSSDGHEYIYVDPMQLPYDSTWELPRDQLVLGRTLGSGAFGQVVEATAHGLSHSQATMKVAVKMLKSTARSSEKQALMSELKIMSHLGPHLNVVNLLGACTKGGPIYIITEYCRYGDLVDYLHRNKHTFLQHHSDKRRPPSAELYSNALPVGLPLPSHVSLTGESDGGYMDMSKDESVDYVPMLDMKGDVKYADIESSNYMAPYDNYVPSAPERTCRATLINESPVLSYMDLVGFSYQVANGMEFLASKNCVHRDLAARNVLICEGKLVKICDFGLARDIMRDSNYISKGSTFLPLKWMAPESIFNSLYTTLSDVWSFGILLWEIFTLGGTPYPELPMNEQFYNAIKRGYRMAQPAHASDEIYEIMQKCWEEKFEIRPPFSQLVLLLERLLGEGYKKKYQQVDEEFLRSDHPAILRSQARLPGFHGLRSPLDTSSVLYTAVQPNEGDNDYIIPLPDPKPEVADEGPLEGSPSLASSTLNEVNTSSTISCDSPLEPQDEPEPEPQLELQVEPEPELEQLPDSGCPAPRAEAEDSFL

The compound `C=C1C(=O)O[C@H]2C[C@H](C)C(/C=C/C(C)=O)=CC[C@H]12` gave a pIC50 in series [1] of 6.42.
Consider `CNC(=O)c1cc(Oc2ccc(NC(=O)Nc3ccc(Cl)c(C(F)(F)F)c3)c(F)c2)ccn1` [REGORAFENIB], for which the pIC50 in series [2] is 7.66.
In the case of `COc1cc2c(Oc3ccc4[nH]c(C)cc4c3F)ccnc2cc1OCC1(N)CC1` [CATEQUENTINIB], the pIC50 is 9.70 in series [3], 6.94 in series [4] and more than 9.00 in series [1].
With `Cc1[nH]c(/C=C2\C(=O)Nc3ccc(F)cc32)c(C)c1C(=O)N[C@H]1CCN(C(=O)N(C)C)C1` [VOROLANIB], in series [5], the half-life was 6.5 h. Moreover, in the series on HUVEC, the pIC50 is 7.50.
Take `CCN(CC)CCNC(=O)c1c(C)[nH]c(/C=C2\C(=O)Nc3ccc(F)cc32)c1C` [SUNITINIB]: the half-life in series [5] was more than 40 h. Besides, the pIC50 in the series with HUVEC is 7.92.
